Measured values taken from patent US10167300B2, “Metalloenzyme inhibitor compounds as fungicides” (priority 2014, dated 2019).
Like-named read-outs stand apart in the source and are kept apart here.

Columns and labels:
[1] = test system: Mycosphaerella graminicola; Anamorph: Septoria tritici; Bayer Code SEPTTR (standard laboratory isolate, SI SEPTTR); assay: Type A (high volume) assay, leaf blotch of wheat, standard laboratory SEPTTR isolate (SI SEPTTR); format: in vivo, Mycosphaerella graminicola on wheat plants (variety Yuma); conditions: Zymoseptoria tritici
How it was run: (§1)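 Wheat seedlings (Yuma, first leaf emerged) sprayed with acetone/Triton X-100 solutions (Type A) or 10% EC diluted in 0.1% Trycol at 200 L/ha (Type B), inoculated before or after spraying. Inoculated plants held 3 days at 20 °C, 100% RH, then greenhouse; % disease control from severity versus untreated plants.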

[2] = test system: Mycosphaerella graminicola; Anamorph: Septoria tritici; Bayer Code SEPTTR (standard laboratory isolate, SI SEPTTR); assay: Type B (low volume, EC formulation, track sprayer 200 L/ha) assay, leaf blotch of wheat, standard laboratory SEPTTR isolate (SI SEPTTR); format: in vivo, Mycosphaerella graminicola on wheat plants (variety Yuma); conditions: Zymoseptoria tritici, 72 h
How it was run: as §1

[3] = Type B (low volume, EC formulation, track sprayer 200 L/ha) assay, leaf blotch of wheat, SEPTTR field isolate (FI SEPTTR); format: in vivo, Mycosphaerella graminicola on wheat plants (variety Yuma); conditions: Zymoseptoria tritici, 72 h
How it was run: as §1

[4] = test system: Mycosphaerella graminicola; Anamorph: Septoria tritici; Bayer Code SEPTTR (field isolate collected from Wellsbourne, England in 2012, FI SEPTTR); assay: as above; format: in vivo, Mycosphaerella graminicola on wheat plants (variety Yuma); conditions: field isolate, low volume EC, 100 g/ha, wheat (Yuma); for Disease Control, FI SEPTTR Type B Assay (100 g/ha) 3 DC: 3 Day Curative; for Disease Control, FI SEPTTR Type B Assay (100 g/ha) 3 DP: 3 Day Protectant
How it was run: as §1

[5] = 24 h, standard laboratory isolate, high volume, 50 ppm, 1 Day Protectant, wheat (Yuma), read-out: Disease Control, SI SEPTTR Type A Assay (50 ppm) 1 DP
[6] = standard laboratory isolate, low volume EC, 100 g/ha, 3 Day Curative, wheat (Yuma), read-out: Disease Control, SI SEPTTR Type B Assay (100 g/ha) 3 DC
[7] = standard laboratory isolate, low volume EC, 100 g/ha, 3 Day Protectant, wheat (Yuma), read-out: Disease Control, SI SEPTTR Type B Assay (100 g/ha) 3 DP
[8] = field isolate, low volume EC, 100 g/ha, 3 Day Curative, wheat (Yuma), read-out: Disease Control, FI SEPTTR Type B Assay (100 g/ha) 3 DC
[9] = field isolate, low volume EC, 100 g/ha, 3 Day Protectant, wheat (Yuma), read-out: Disease Control, FI SEPTTR Type B Assay (100 g/ha) 3 DP

Compound	pest or weed control at 50 ppm [1, 5] [%]	pest or weed control at 100 g/ha [2, 6] [%]	pest or weed control at 100 g/ha [2, 7] [%]	pest or weed control at 100 g/ha [3, 8] [%]	pest or weed control at 100 g/ha [3, 9] [%]	also measured
CC(O)(Cc1cncnc1)c1ccc(-c2ccc(Cl)cc2)cn1 (stereo not drawn) [Compound 25, 2-[5-(4-chlorophenyl)-2-pyridyl]-1-pyrimidin-5-yl-propan-2-ol]	40 to 59	–	–	–	–	pest or weed control at 50 ppm ([1]; 72 h, standard laboratory isolate, high volume, 50 ppm, 3 Day Curative, wheat (Yuma), read-out: Disease Control, SI SEPTTR Type A Assay (50 ppm) 3 DC): 80 to 100%; melting point: 150 to 155 °C
CC(C)(C)C(O)(c1cncnc1)c1ccc(-c2ccc([Si](C)(C)C)cc2)cn1 (stereo not drawn) [Compound 121]	–	–	–	–	–	pest or weed control at 50 ppm ([1]; 24 h, read-out: Disease Control, SI SEPTTR Type A Assay (50 ppm) 1 DP): 80 to 100%; pest or weed control at 100 g/ha ([2]; read-out: Disease Control, SI SEPTTR Type B Assay (100 g/ha) 3 DC): 80 to 100%; pest or weed control at 100 g/ha ([2]; read-out: Disease Control, SI SEPTTR Type B Assay (100 g/ha) 3 DP): 80 to 100%; pest or weed control at 100 g/ha ([3]; read-out: Disease Control, FI SEPTTR Type B Assay (100 g/ha) 3 DC): 80 to 100%; pest or weed control at 100 g/ha ([3]; read-out: Disease Control, FI SEPTTR Type B Assay (100 g/ha) 3 DP): 60 to 79%
Cn1cc(-c2ccc(C(O)(c3cncnc3)C(C)(C)C)nc2)cn1 (stereo not drawn) [Compound 122]	80 to 100	80 to 100	80 to 100	60 to 79	60 to 79	–
CC(C)(C)C(O)(c1cncnc1)c1ccc(-c2ccc(OC(F)(F)F)cc2F)cn1 (stereo not drawn) [Compound 124, 1-(5-(2-fluoro-4-(trifluoromethoxy)phenyl)pyridin-2-yl)-2,2-dimethyl-1-(pyrimidin-5-yl)propan-1-ol]	80 to 100	80 to 100	80 to 100	80 to 100	80 to 100	–
CC(C)(C)C(O)(c1cncnc1)c1ccc(-c2ccc(SC(F)(F)F)cc2)cn1 (stereo not drawn) [Compound 125]	80 to 100	80 to 100	80 to 100	80 to 100	60 to 79	–
Cc1cc(-c2ccc(CC(F)(F)F)nc2)cnc1C(O)(c1cncnc1)C(C)(C)C (stereo not drawn) [Compound 131]	80 to 100	80 to 100	60 to 79	60 to 79	60 to 79	–
CC(C)(C)c1ccc(-c2ccc(C(O)(c3cccnc3)C(C)(C)C)nc2)cc1 (stereo not drawn) [Compound 143]	80 to 100	80 to 100	60 to 79	80 to 100	80 to 100	–
CC(C)(C)C(O)(c1cccnc1)c1ccc(-c2ccc(C3(C#N)CC3)cc2)cn1 (stereo not drawn) [Compound 145]	80 to 100	80 to 100	60 to 79	80 to 100	80 to 100	–
Cc1cc(OC(F)(F)F)ccc1-c1ccc(C(O)(c2cccnc2)C(C)(C)C)nc1 (stereo not drawn) [Compound 146]	80 to 100	80 to 100	80 to 100	80 to 100	60 to 79	–
CC(C)(C#N)c1ccc(-c2ccc(C(O)(c3cncnc3)C(C)(C)C)nc2)cc1 (stereo not drawn) [Compound 152]	80 to 100	80 to 100	80 to 100	80 to 100	80 to 100	–
Cc1ncncc1C(O)(c1ccc(-c2ccc(OC(F)(F)F)cc2F)cn1)C(C)(C)C (stereo not drawn) [Compound 157]	80 to 100	80 to 100	80 to 100	80 to 100	80 to 100	–
Cc1cc(C2(C#N)CC2)ccc1-c1ccc(C(O)(c2cncnc2)C(C)(C)C)nc1 (stereo not drawn) [Compound 158]	80 to 100	80 to 100	80 to 100	80 to 100	80 to 100	–
COc1ncncc1C(O)(c1ccc(-c2ccc(OC(F)(F)F)cc2)cn1)C(C)(C)C (stereo not drawn) [Compound 167]	80 to 100	80 to 100	60 to 79	80 to 100	80 to 100	–
COc1ncncc1C(O)(c1ccc(-c2ccc(C3(C#N)CC3)cc2)cn1)C(C)(C)C (stereo not drawn) [Compound 169]	80 to 100	80 to 100	60 to 79	80 to 100	80 to 100	–
CCOC(CC)(c1cncnc1)c1ccc(-c2ccc(OC(F)(F)F)cc2F)cn1 (stereo not drawn) [Compound 193]	–	–	–	–	–	Disease Control, FI SEPTTR Type B Assay (100 g/ha) 3 DC [4]: D (<40); Disease Control, FI SEPTTR Type B Assay (100 g/ha) 3 DP [4]: B (60-79)
CC(C)(C)C(O)(Cc1cncnc1)c1ccc(-c2ccc(SC(F)(F)F)cc2)cn1 (stereo not drawn) [Compound 231]	–	–	–	–	–	Disease Control, FI SEPTTR Type B Assay (100 g/ha) 3 DC [4]: D (<40); Disease Control, FI SEPTTR Type B Assay (100 g/ha) 3 DP [4]: B (60-79)
